In patent US5001160A (priority 1989, dated 1991):
Structures can show the parent of a compound that is named as a salt.

Assays:
[1] = molecular target: postsynaptic muscarinic cholinergic receptors (bladder detrusor muscle) (Cavia porcellus, UniProt H0W1Z3); experiment: cell-based; design: species or system guinea pig
[2] = system: bladder contraction (PvesP); details: guinea pig, in vivo, iv

postsynaptic muscarinic cholinergic receptors (bladder detrusor muscle), sequence (H0W1Z3 1-590): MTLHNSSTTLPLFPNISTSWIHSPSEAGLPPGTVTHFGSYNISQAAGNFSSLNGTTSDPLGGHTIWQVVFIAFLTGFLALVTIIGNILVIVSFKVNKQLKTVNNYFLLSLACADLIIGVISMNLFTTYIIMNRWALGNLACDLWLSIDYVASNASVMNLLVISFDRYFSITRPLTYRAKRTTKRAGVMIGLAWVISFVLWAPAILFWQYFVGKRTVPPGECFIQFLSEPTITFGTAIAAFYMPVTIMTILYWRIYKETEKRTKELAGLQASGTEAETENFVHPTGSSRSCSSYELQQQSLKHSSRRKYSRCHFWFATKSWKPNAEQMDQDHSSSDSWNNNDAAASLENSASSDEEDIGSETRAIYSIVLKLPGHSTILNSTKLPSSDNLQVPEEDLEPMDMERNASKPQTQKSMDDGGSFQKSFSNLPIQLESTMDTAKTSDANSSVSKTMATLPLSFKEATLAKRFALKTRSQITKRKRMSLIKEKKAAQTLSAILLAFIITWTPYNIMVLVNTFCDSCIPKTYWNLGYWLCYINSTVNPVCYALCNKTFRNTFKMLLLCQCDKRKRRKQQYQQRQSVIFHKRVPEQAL

Row | SMILES | Kb [1] | T1/2 for recovery toward control level of the PvesP contraction strength parameter [2]
1 | O=C(CN1CCNCC1)C(O)(c1ccccc1)C1CCC1 (centres unmarked) [1-Cyclobutyl-1-hydroxy-1-phenyl-3-piperazinyl-2-propanone Dihydrochloride] | 86 nM | 
2 | C=CCN1CCN(CC(=O)C(O)(c2ccccc2)C2CCC2)CC1 (centres unmarked) [1-Cyclobutyl-1-hydroxy-3-(4-allyl-1-piperazinyl)-1-phenyl-2-propanone Dihydrochloride] | 65 nM | 
3 | O=C(CN1CCN(C(c2ccccc2)c2ccccc2)CC1)C(O)(c1ccccc1)C1CCC1 (centres unmarked) [1-Cyclobutyl-1-hydroxy-3-(4-benzyhydryl-1-piperazinyl)-1-phenyl-2-propanoneDihydrochloride] | No Effect at 1 μM | 
4 | O=C(CN1CCN(C2CCC2)CC1)C(O)(c1ccccc1)C1CCC1 (centres unmarked) [1-Cyclobutyl-1-hydroxy-3-(4-cyclobutyl-1-piperazinyl)-1-phenyl-2-propanone Dihydrochloride] | 230 nM | 
5 | CCOC(=O)N1CCN(CC(=O)C(O)(c2ccccc2)C2CCC2)CC1.Cl (centres unmarked) [1-Cyclobutyl-1-hydroxy-3-(4-ethoxycarbonyl-1-piperazinyl)-1-phenyl-2-propanone Hydrochloride] | No Effect at 1 μM | 
6 | CN1CCN(CC(=O)C(O)(c2ccccc2)C2CCC2)CC1 (centres unmarked) [1-Cyclobutyl-1-hydroxy-3-(4-methyl-1-piperazinyl)-1-phenyl-2-propanone Dihydrochloride] | 24.9 nM | 
7 | Cl.Cl.O=C(CN1CCN(c2ccccc2)CC1)C(O)(c1ccccc1)C1CCC1 (centres unmarked) [1-Cyclobutyl-1-hydroxy-3-(4-phenyl-1-piperazinyl)-1-phenyl-2-propanone Dihydrochloride] | No Effect at 1 μM | 
8 | CCCN1CCN(CC(=O)C(O)(c2ccccc2)C2CCC2)CC1 (centres unmarked) [1-Cyclobutyl-1-hydroxy-3-(4-propyl-1-piperazinyl)-1-phenyl-2-propanone Dihydrochloride] | 673 nM | 
9 | O=C(CN1CCN(CC(=O)C(O)(c2ccccc2)C2CCC2)CC1)N1CCCC1 (centres unmarked) [1-Cyclobutyl-1-hydroxy-3-(4-pyrrolidino-carbonylmethyl-1-piperazinyl)-1-phenyl-2-propanone Dihydrochloride] | 210 nM | 
10 | CCOc1ccccc1N1CCN(CC(=O)C(O)(c2ccccc2)C2CCC2)CC1.Cl.Cl (centres unmarked) [1-Cyclobutyl-1-hydroxy-3-[4-(2-ethoxyphenyl)-1-piperazinyl]-1-phenyl-2-propanone Dihydrochloride] | No Effect at 1 μM | 
11 | O=C(CN1CCN(CCO)CC1)C(O)(c1ccccc1)C1CCC1 (centres unmarked) [1-Cyclobutyl-1-hydroxy-3-[4-(2-hydroxyethyl)-1-piperazinyl]-1-phenyl-2-propanone Dihydrochloride] | 201 nM | 
12 | COc1ccccc1N1CCN(CC(=O)C(O)(c2ccccc2)C2CCC2)CC1.Cl.Cl (centres unmarked) [1-Cyclobutyl-1-hydroxy-3-[4-(2-methoxyphenyl)-1-piperazinyl]-1-phenyl-2-propanone Dihydrochloride] | No Effect at 1 μM | 
13 | C=C(C)CN1CCN(CC(=O)C(O)(c2ccccc2)C2CCC2)CC1 (centres unmarked) [1-Cyclobutyl-1-hydroxy-3-[4-(2-methyl-2-propenyl)-1-piperazinyl]1-phenyl-2-propanone Dihydrochloride] | 100 nM | 
14 | C=CCCN1CCN(CC(=O)C(O)(c2ccccc2)C2CCC2)CC1 (centres unmarked) [1-Cyclobutyl-1-hydroxy-3-[4-(3-butenyl)-1-piperazinyl]-1-phenyl-2-propanoneDihydrochloride] | 35 nM | 
15 | CC(C)=CCN1CCN(CC(=O)C(O)(c2ccccc2)C2CCC2)CC1 (centres unmarked) [1-Cyclobutyl-1-hydroxy-3-[4-(3-methyl-2-butenyl)-1-piperazinyl]-1-phenyl-2-propanone Dihydrochloride] | 19 nM | 
16 | O=C(CN1CCN(Cc2ccc(Cl)cc2)CC1)C(O)(c1ccccc1)C1CCC1 (centres unmarked) [1-Cyclobutyl-1-hydroxy-3-[4-(4-chlorobenzyl)-]1-piperazinyl]-1-phenyl-2-propanone Dihydrochloride] | 16 nM | 
17 | Cc1ccc(CN2CCN(CC(=O)C(O)(c3ccccc3)C3CCC3)CC2)cc1 (centres unmarked) [1-Cyclobutyl-1-hydroxy-3-[4-(4-methylbenzyl)-]1-piperazinyl]-1-phenyl-2-propanone Dihydrochloride] | 9.1 nM | 
18 | O=C(CN1CCN(Cc2ccc([N+](=O)[O-])cc2)CC1)C(O)(c1ccccc1)C1CCC1 (centres unmarked) [1-Cyclobutyl-1-hydroxy-3-[4-(4-nitrobenzyl)-1-piperazinyl]-1-phenyl-2-propanone Dihydrochloride] | 83 nM | 
19 | Cl.Cl.O=C(CN1CCN(c2ccc([N+](=O)[O-])cc2)CC1)C(O)(c1ccccc1)C1CCC1 (centres unmarked) [1-Cyclobutyl-1-hydroxy-3-[4-(4-nitrophenyl)-1-piperazinyl]-1-phenyl-2-propanone Dihydrochloride] | No Effect at 1 μM | 
20 | C=CCN1CCN(CC(=O)C(O)(c2ccccc2)C2CCCCC2)CC1 (centres unmarked) [1-Cyclohexyl-1-hydroxy-3-(4-allyl-1-piperazinyl)-1-phenyl-2-propanone Dihydrochloride] | 26 nM | 
21 | CN1CCN(CC(=O)C(O)(c2ccccc2)C2CCCCC2)CC1 (centres unmarked) [1-Cyclohexyl-1-hydroxy-3-(4-methyl-1-piperazinyl)-1-phenyl-2-propanone] | 25.9 ± 5.3 nM | 216 ± 18 min
22 | O=C(CN1CCN(CCO)CC1)C(O)(c1ccccc1)C1CCCCC1 (centres unmarked) [1-Cyclohexyl-1-hydroxy-3-[4-(2-hydroxyethyl)-1-piperazinyl]-1-phenyl-2-propanone Dihydrochloride] | 96 nM | 
